{"source": "patent US6555055B1", "about": "“System for preventing and remediating biofilms in dental equipment” (Lynntech, Inc., priority 1998, dated 2003)", "key": {"[1]": {"system": "established biofilm in a previously used dental unit", "excerpt": "The experiment consisted of first re-invigorating an established biofilm in a previously used dental unit (A-Dec, a 1980 model) by running tap water, which had been determined to have a bacterial count of 10^4 cfu/mL, through the apparatus at hourly intervals between 9:00 a.m. and 4:00 p.m. for a total of 10 days. […] This limited the organisms monitored to those originating from the biofilm.\nOnly one bottle was used at a time, either one containing deionized water (filtered through a 0.2 micron filter), or one containing a 1% H2O2 solution (Kroger brand 3%, diluted with deionized water to a 1% solution). Every morning at 9:00 a.m., the H2O2 bottle was connected to the compressed air cylinder and the junction box (which connects the reservoir to the dental cart). The second air cylinder was directly connected to the junction box which provided air to the dental cart tools and allowed the peroxide or water solution to be misted out of the high-speed handpiece to simulate dental office use. Both air cylinders were opened, and H2O2 was run through the unit by pressurizing the bottle. A 50 mL bolus of the H2O2 solution was run through as the line to the dental cart/handpiece holds approximately 40 mL. The H2O2 bottle was then removed, and the bottle containing only water was connected into the set-up in exactly the same way. Approximately 150 mL of water were run through the unit to ensure that all of the H2O2 was rinsed out of the line. For the remainder of the day, to simulate normal operation in a dentist's office where the water is left stagnant 99% of the time, the line was flushed with 150 mL of water every hour. At 4:00 p.m., a 2 mL sample of water was collected from the high-speed handpiece into a 15 mL sterile centrifuge tube (Fisher brand). […] The plates were counted using a MANOSTAT brand colony counter after 2-3 days incubation time at 37° C., selected as the optimal growth temperature for human pathogens.\nAfter the H2O2 treatment, 150 mL of sterile, deionized water was run through the unit at hourly intervals between the hours of 9:00 a.m. and 4:00 p.m. to simulate normal dental office operating conditions, where water is left stagnant most of the time. On day 35, the unit was treated for 4 days with 2% H2O2 in the same manner previously described. This was done to assess the effect of higher concentrations of peroxide on the biofilm.\nOn day 40, the peroxide treatment procedure was changed slightly. Instead of applying the 2% H2O2 solution in the morning it remained in the dental lines overnight. From 9.00 a.m. to 4 p.m. daily the unit was flushed with 150 mL of sterile water. […] At 9.00 a.m., the following morning, the sterile water flushes began again.\nAt the end of the day after the last flushing, a 2 mL sample of water was collected from the hand piece. […]"}, "[2]": {"system": "bacteria", "conditions": "cited from earlier work"}}}
{"smiles": "OO", "note": "[hydrogen peroxide]", "values": [{"measurement": "Level demonstrated to be effective against existing biofilms", "setting": "[1]", "value": 2, "unit": "%"}, {"measurement": "Microbial load of water from the high-speed handpiece", "setting": "[1]; 1% H2O2 applied in the morning, sample in the afternoon after hourly flushings, initial applications (Region II)", "value": "< 200", "unit": "cfu/mL"}, {"measurement": "Bacterial count of water from the handpiece", "setting": "[1]; 2% H2O2 left in the lines overnight, from day 40 onwards, initial results", "value": "< 200", "unit": "cfu/mL"}, {"measurement": "Bacterial cell counts", "setting": "[1]; 2% solution, applied in the morning, from day 35 for 4 days (Region IV)", "value": "lower bacterial cell counts than a 1% solution"}, {"measurement": "Effect against a broad range of pathogens", "setting": "[2]; 3%, Juven and Pierson", "value": "quite effective"}, {"measurement": "Minimum level for use in an acidic sanitizing solution (lowest concentration described as effective as a germicide)", "setting": "[2]; 21 CFR Part 178.1010 (c) (39), food utensils and food handling surfaces", "value": "≥ 72", "unit": "ppm"}, {"measurement": "Concentration for bacteriostatic activity", "setting": "[2]; Juven and Pierson", "value": 0.0005, "unit": "%"}, {"measurement": "Onset of bactericidal activity", "setting": "[2]; Juven and Pierson", "value": 0.0034, "unit": "%"}, {"measurement": "Concentration required for broad bactericidal action over a short time span (minutes)", "setting": "[2]; Thomas et. al.", "value": "at least 0.1%"}, {"measurement": "Concentrations suppressing bacterial growth (bacteriostatic action)", "setting": "[2]; Thomas et. al.", "value": "≥ 0.0007", "unit": "%"}, {"measurement": "Concentrations of biostatic control", "setting": "[2]", "value": "< 0.1", "unit": "%"}, {"measurement": "Concentrations of efficient biocidal control", "setting": "[2]", "value": 1, "unit": "%"}, {"measurement": "Concentrations at which it is a potent bacteriostat", "setting": "[2]; known", "value": "less than 100 ppm"}]}
